Numbered stars: 1 amine (or outer) side, 2 acyl side, 3 side chain; on linkers, the order of the positions; unused ones are H or OH. Square brackets hold non-standard residues; d marks the D form. Peptide text beside a SMILES is read from it. * marks the point of attachment. X11 = O=C([C@@H](Cc1ccc(O)cc1)N(CCCc1ccccc1)[*:1])[*:2]; Bpa = N[C@@H](Cc1ccc(C(=O)c2ccccc2)cc1)C(=O)O; PEG8 = NCCOCCOCCOCCOCCOCCOCCOCCOCCC(=O)O; Phe(4-Me) = Cc1ccc(C[C@H](N)C(=O)O)cc1; X4 = O=C([C@@H]1Cc2ccsc2CN1[*:1])[*:2]; 1Nal = N[C@@H](Cc1cccc2ccccc12)C(=O)O; 2Nal = N[C@@H](Cc1ccc2ccccc2c1)C(=O)O; dNMeY = CN[C@H](Cc1ccc(O)cc1)C(=O)O; Hydrocinnamoyl = O=C(CCc1ccccc1)*; NMeF = CN[C@@H](Cc1ccccc1)C(=O)O; Tic = O=C(O)[C@@H]1Cc2ccccc2CN1; NMeL = CN[C@@H](CC(C)C)C(=O)O; Lauroyl = CCCCCCCCCCCC(=O)*; X9 = O=C(c1ccc(O)c(O)c1O)*; NMeS = CN[C@@H](CO)C(=O)O; Nva = CCC[C@H](N)C(=O)O; X8 = O=C(c1c(O)cccc1O)*; βAla = NCCC(=O)O
What follows are compounds tested against T1, human Chemokine like receptor 1 (Homo sapiens, UniProt Q99788) (assay: Activation of Tango CMKLR1-bla U2OS cells (beta-lactamase FRET reporter)). Settings: not given.
T1 construct: host or cells: U2OS (Tango CMKLR1-bla U2OS)
T1 sequence (Q99788 1-373): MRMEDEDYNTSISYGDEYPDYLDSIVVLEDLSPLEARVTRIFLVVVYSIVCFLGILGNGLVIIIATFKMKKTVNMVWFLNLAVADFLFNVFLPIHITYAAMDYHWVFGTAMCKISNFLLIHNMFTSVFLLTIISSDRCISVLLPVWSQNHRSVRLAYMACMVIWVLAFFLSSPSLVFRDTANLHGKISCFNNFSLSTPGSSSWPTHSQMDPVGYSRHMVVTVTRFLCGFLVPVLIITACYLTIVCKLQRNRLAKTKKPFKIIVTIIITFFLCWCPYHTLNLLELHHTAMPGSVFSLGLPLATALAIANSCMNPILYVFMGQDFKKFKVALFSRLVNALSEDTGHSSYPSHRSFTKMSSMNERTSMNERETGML
Format: cell-based
Experimental: The polypeptide sequences described above are the polypeptide sequences disclosed in the patent JP2010-229093A of BANYU PHARMA CO LTD: (D-Tyr)-Phe-Leu-Pro-(D-Ser)-Gln-Phe-(D-Ala)-Tic-Ser was used as a positive control (SEQ ID NO: 102).
The activation of the compound on Tango™ CMKLR1-bla U2OS cells (Invitrogen Cat. nos. K1551) was tested.
The activation of each compound in the above experiments on Tango™ CMKLR1-bla U2OS cells was determined as follows:
Day 1: Cell Seeding on Plate
2. The medium was removed, and the cells were washed with DPBS twice, followed by addition of 3 mL of 0.05% trypsin, and placed in a 37° C., 5% CO2 incubator (Thermo Fisher, Waltham, Massachusetts, USA) for 3-5 minutes. After the cells were rounded, 3-5 mL of medium (medium formula: DMEM 90%, Dialyzed FBS 10%, NEAA 0.1 mM, HEPES (pH 7.3) 25 mM, Penicillin 100 U/mL, Streptomycin 100 μg/mL) was added to terminate digestion.
2. The digested cells were transferred to a 15 mL centrifuge tube (430790, Corning), centrifuged at 1000 rpm for 5 minutes (5810R, Eppendorf, Hamburg, Germany), and the supernatant was discarded.
3. 7 mL of medium (DMEM+10% FBS) was added, blowed into a single cell suspension, counted by a cell counter, and adjusted the cell suspension to a desired cell density of 250,000/mL with the medium.
4. The cell suspension was seeded into a 384-well cell plate (Corning 3712) in 40 μL/well to make the number of cells 10000 cells/well, and 32 μL of medium was added to the blank control.
5. The incubation was performed overnight at 37° C. under 5% CO2.
Day 2: Dosing and Testing
1. Preparation of 200× Compound Plate
1.1 The test compound was formulated into a 10 mM working solution in DMSO.
1.2 45 μL of 10 mM test compound was added to the 2nd column of rows A to P in the Echo-384 well plate. The compound was subjected to a 3-fold dilution with Precision (30 μL of DMSO was added to the 3rd to 11th columns; 15 μL of the drug solution was pipetted from the 2nd column to the 3rd column, blown and evenly mixed; then 15 μL of the drug solution was pipetted from the 3rd column to the 4th column, blown and evenly mixed; the drugs was subjected to a 3-fold dilution to obtain 10 concentrations in total). The 1st and 12th columns of the Echo-384 well plate were supplemented with 30 μL of DMSO.
2. Preparation of Intermediate Plate
500 nL, i.e., 0.5 μL of the diluted compound (or DMSO) in the 200× compound plate was transferred into the corresponding position of V-bottom 384-well plate with Echo. 20 μL of medium was added to each well, centrifuged, shaken and evenly mixed. The concentration of the drugs in each well of the 2nd to 11th column of intermediate plate (i.e., 5× compound plate) were shown in following Table 4.
3.1 The cell plate was taken out from the incubator and observed under a microscope. The diluted compound or DMSO in the intermediate plate was added to the cell plate in 10 μL/well in the corresponding cell plate, and 40 μL of medium was pre-filled in each well.
3.2 The cells were incubated at 37° C. under 5% CO2 for 4 hours.
4.1 1 mM CCF4-AM, solution B, Solution C, and Solution D were used to prepare an appropriate amount of 6× detection solution. The LiveBLAzer™-FRET B/G Loading kit (K1095, Thermo Fisher, Waltham, Massachusetts, USA) kit containing CCF-4AM and solutionB, solutionC, and solutionD was also purchased from invitrogen (K1157, Thermo Fisher, Waltham, Massachusetts, USA).
4.2 The cells were observed under a microscope and the cell plate was equilibrated to room temperature.
4.3 6 μL of CCF-4AM dissolved solution A, 60 μL of solution B, 904 μL of solution C and 30 μL of solution D were pipetted in an EP tube, blown, and evenly mixed to obtain a 6× detection solution. The prepared 6× detection solution was pipetted to a 384-well plate in 10 μL/well.

SMILES	EC50
CCC[C@H](NC(=O)[C@H](Cc1ccccc1)NC(=O)[C@H](N)Cc1ccc(O)cc1)C(=O)N1CCC[C@H]1C(=O)N[C@H](CO)C(=O)N[C@@H](CCC(N)=O)C(=O)N[C@@H](Cc1ccccc1)C(=O)N[C@H](C)C(=O)N1Cc2ccccc2C[C@H]1C(=O)N[C@@H](CO)C(=O)O [YW-196, (D-Tyr)-Phe-Nva-Pro-(D-Ser)-Gln-Phe-(D-Ala)-Tic-Ser] (H-[dY]F[Nva]P[dS]QF[dA][Tic]S-OH)	39 nM
CC(C)C[C@H](NC(=O)[C@H](Cc1ccccc1)NC(=O)[C@H](N)Cc1ccc(O)cc1)C(=O)N1CCC[C@H]1C(=O)N[C@H](CO)C(=O)N[C@@H](CCC(N)=O)C(=O)N[C@@H](Cc1cccc2ccccc12)C(=O)N[C@H](C)C(=O)N1Cc2ccccc2C[C@H]1C(=O)N[C@@H](CO)C(=O)O [YW-117, (D-Tyr)-Phe-Leu-Pro-(D-Ser)-Gln-1Nal-(D-Ala)-Tic-Ser-OH] (H-[dY]FLP[dS]Q[1Nal][dA][Tic]S-OH)	3.9 nM
CC(C)C[C@H](NC(=O)[C@H](Cc1ccccc1)NC(=O)[C@H](N)Cc1ccc(O)cc1)C(=O)N1CCC[C@H]1C(=O)N[C@H](CO)C(=O)N[C@@H](CCC(N)=O)C(=O)N[C@@H](Cc1ccc2ccccc2c1)C(=O)N[C@H](C)C(=O)N1Cc2ccccc2C[C@H]1C(=O)N[C@@H](CO)C(=O)O [YW-118, (D-Tyr)-Phe-Leu-Pro-(D-Ser)-Gln-2Nal-(D-Ala)-Tic-Ser-OH] (H-[dY]FLP[dS]Q[2Nal][dA][Tic]S-OH)	6.9 nM

Same assay, conditions: determination by the method of Effect Embodiment 1; read-out: EC50

SMILES	EC50
CC(C)C[C@H](NC(=O)[C@H](Cc1ccccc1)NC(=O)[C@H](N)Cc1ccc(O)cc1)C(=O)N1CCC[C@H]1C(=O)N[C@H](CO)C(=O)N[C@@H](CCC(N)=O)C(=O)N[C@@H](Cc1ccc(C(=O)c2ccccc2)cc1)C(=O)N[C@H](C)C(=O)N1Cc2ccccc2C[C@H]1C(=O)N[C@@H](CO)C(=O)O [YW-119, (D-Tyr)-Phe-Leu-Pro-(D-Ser)-Gln-Bpa-(D-Ala)-Tic-Ser-OH] (H-[dY]FLP[dS]Q[Bpa][dA][Tic]S-OH)	9.9 nM
CCCCCCCCCCCC(=O)NCCOCCOCCOCCOCCOCCOCCOCCOCCC(=O)NCCC(=O)NCCC(=O)N(C)[C@H](Cc1ccc(O)cc1)C(=O)N[C@@H](Cc1ccccc1)C(=O)N(C)[C@@H](CC(C)C)C(=O)N1CCC[C@H]1C(=O)N[C@H](CO)C(=O)N[C@@H](CCC(N)=O)C(=O)N[C@@H](Cc1ccc2ccccc2c1)C(=O)N[C@H](C)C(=O)N1Cc2ccccc2C[C@H]1C(=O)N(C)[C@@H](CO)C(=O)O [YW-181, Dodecanoyl-PEG8-βAla-βAla-(NMe-D-Tyr)-Phe-(NMe-Leu)-Pro-(D-Ser)-Gln-2Nal-(D-Ala)-Tic-(NMe-Ser)] ({Lauroyl-PEG8-βAla-βAla}-[dNMeY]F[NMeL]P[dS]Q[2Nal][dA][Tic][NMeS]-OH)	2.2 nM
CC(C)C[C@H](NC(=O)[C@H](Cc1ccccc1)NC(=O)[C@@H](Cc1ccc(O)cc1)NCCCc1ccccc1)C(=O)N1CCC[C@H]1C(=O)N[C@H](CO)C(=O)N[C@@H](CCC(N)=O)C(=O)N[C@@H](Cc1ccccc1)C(=O)N[C@H](C)C(=O)N1Cc2ccccc2C[C@H]1C(=O)N[C@@H](CO)C(=O)O [YW-74, 3-Phenylpropyl-(D-Tyr)-Phe-Leu-Pro-(D-Ser)-Gln-Phe-(D-Ala)-Tic-Ser-OH] (H-[X11]FLP[dS]QF[dA][Tic]S-OH)	6.2 nM
CC(C)C[C@@H](C(=O)N1CCC[C@H]1C(=O)N[C@H](CO)C(=O)N[C@@H](CCC(N)=O)C(=O)N[C@@H](Cc1ccccc1)C(=O)N[C@H](C)C(=O)N1Cc2ccccc2C[C@H]1C(=O)N[C@@H](CO)C(N)=O)N(C)C(=O)[C@H](Cc1ccccc1)NC(=O)[C@@H](Cc1ccc(O)cc1)NC(=O)CCc1ccccc1 [YW-161, 3-phenylpropanoyl-(D-Tyr)-Phe-(NMe-Leu)-Pro-(D-Ser)-Gln-Phe-(D-Ala)-Tic-Ser-NH2] (Hydrocinnamoyl-[dY]F[NMeL]P[dS]QF[dA][Tic]S-NH2)	3 nM

More lines, now with the values ahead:

EC50	SMILES
65 nM	CC(C)C[C@H](NC(=O)[C@H](Cc1ccccc1)NC(=O)[C@H](N)Cc1ccc(O)cc1)C(=O)N1CCC[C@H]1C(=O)N[C@H](CO)C(=O)N[C@@H](CCC(N)=O)C(=O)N[C@@H](Cc1ccccc1)C(=O)N[C@H](C)C(=O)N1Cc2sccc2C[C@H]1C(=O)N[C@@H](CO)C(=O)O [YW-158, (D-Tyr)-Phe-Leu-Pro-(D-Ser)-Gln-Phe-(D-Ala)-TP5C-Ser-OH] (H-[dY]FLP[dS]QF[dA][X4]S-OH; N-terminus assumed)
31 nM	CC(C)C[C@H](NC(=O)[C@H](Cc1ccccc1)NC(=O)[C@@H](Cc1ccc(O)cc1)NC(=O)CCc1ccccc1)C(=O)N1CCC[C@H]1C(=O)N[C@H](CO)C(=O)N[C@@H](CCC(N)=O)C(=O)N[C@@H](Cc1ccccc1)C(=O)N[C@H](C)C(=O)N1Cc2ccccc2C[C@H]1C(=O)N[C@@H](CO)C(=O)O [YW-71, 3-phenylpropanoyl-(D-Tyr)-Phe-Leu-Pro-(D-Ser)-Gln-Phe-(D-Ala)-Tic-Ser-OH] (Hydrocinnamoyl-[dY]FLP[dS]QF[dA][Tic]S-OH)
20 nM	CC(C)C[C@H](NC(=O)[C@H](Cc1ccccc1)NC(=O)[C@@H](Cc1ccc(O)cc1)NC(=O)c1c(O)cccc1O)C(=O)N1CCC[C@H]1C(=O)N[C@H](CO)C(=O)N[C@@H](CCC(N)=O)C(=O)N[C@@H](Cc1ccccc1)C(=O)N[C@H](C)C(=O)N1Cc2ccccc2C[C@H]1C(=O)N[C@@H](CO)C(=O)O [YW-128, 2,6-dihydroxybenzoyl-(D-Tyr)-Phe-Leu-Pro-(D-Ser)-Gln-Phe-(D-Ala)-Tic-Ser-OH] (X8-[dY]FLP[dS]QF[dA][Tic]S-OH)
10.6 nM	CC(C)C[C@@H](C(=O)N1CCC[C@H]1C(=O)N[C@H](CO)C(=O)N[C@@H](CCC(N)=O)C(=O)N[C@@H](Cc1ccccc1)C(=O)N[C@H](C)C(=O)N1Cc2ccccc2C[C@H]1C(=O)N[C@@H](CO)C(=O)O)N(C)C(=O)[C@H](Cc1ccccc1)N(C)C(=O)[C@H](N)Cc1ccc(O)cc1 [YW-105, (D-Tyr)-(NMe-Phe)-(NMe-Leu)-Pro-(D-Ser)-Gln-Phe-(D-Ala)-Tic-Ser-OH] (H-[dY][NMeF][NMeL]P[dS]QF[dA][Tic]S-OH; N-terminus assumed)
9.1 nM	CC(C)C[C@H](NC(=O)[C@H](Cc1ccccc1)NC(=O)[C@@H](Cc1ccc(O)cc1)NC(=O)c1ccc(O)c(O)c1O)C(=O)N1CCC[C@H]1C(=O)N[C@H](CO)C(=O)N[C@@H](CCC(N)=O)C(=O)N[C@@H](Cc1ccccc1)C(=O)N[C@H](C)C(=O)N1Cc2ccccc2C[C@H]1C(=O)N[C@@H](CO)C(=O)O [YW-129, 2,3,4-Trihydroxybenzoyl-(D-Tyr)-Phe-Leu-Pro-(D-Ser)-Gln-Phe-(D-Ala)-Tic-Ser-OH] (X9-[dY]FLP[dS]QF[dA][Tic]S-OH)
6.2 nM	Cc1ccc(C[C@H](NC(=O)[C@@H](C)NC(=O)[C@H](Cc2ccccc2)NC(=O)[C@H](CCC(N)=O)NC(=O)[C@@H](CO)NC(=O)[C@@H]2CCCN2C(=O)[C@H](CC(C)C)N(C)C(=O)[C@H](Cc2ccccc2)NC(=O)[C@H](N)Cc2ccc(O)cc2)C(=O)N[C@@H](CO)C(=O)O)cc1 [YW-205, (D-Tyr)-Phe-(NMe-Leu)-Pro-(D-Ser)-Gln-Phe-(D-Ala)-Phe(4-Me)-Ser] (H-[dY]F[NMeL]P[dS]QF[dA][Phe(4-Me)]S-OH)
